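The compound was tested at five concentrations on cells cultured in 96-well plates, with a 48-hour exposure period. GI50 is the concentration that inhibits growth by half. The concentration for full growth arrest is given as TGI.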
How the values were obtained:
Experiment in all cases: NCI anticancer screen, dose series, 48 h
[1] = system: LOX IMVI melanoma
[2] = system: SK-MEL-28 melanoma
[3] = system: U251 CNS
[4] = system: SNB-19 CNS
[5] = system: DU-145 prostate
[6] = system: A549 NSCLC
[7] = system: HCC-2998 colon
[8] = system: SR leukemia
[9] = system: SNB-75 CNS
[10] = system: SF-295 CNS
[11] = system: UACC-62 melanoma
[12] = system: HCT-116 colon
[13] = system: MALME-3M melanoma
[14] = system: MOLT-4 leukemia
[15] = system: NCI-H226 lung
[16] = system: PC-3 prostate
[17] = system: HOP-92 NSCLC
[18] = system: EKVX NSCLC
[19] = system: A498 renal
[20] = system: CCRF-CEM leukemia
[21] = system: OVCAR-5 ovarian
[22] = system: RPMI-8226 leukemia
[23] = system: NCI-H460 lung
[24] = system: UACC-257 melanoma
[25] = system: CAKI-1 renal
[26] = system: T-47D breast
[27] = system: HS 578T breast
[28] = system: NCI-H522 lung
[29] = system: MDA-MB-231 breast

Work on `CS(=O)(=O)Nc1cc(-c2ccc3ncc(C#N)c(NCc4ccccc4O)c3c2)cnc1Cl` yielded a TGI [1] of 2180 nM, a GI50 [2] of 387 nM and a TGI [2] of 7380 nM. For the same compound, the GI50 [3] was 300 nM, the GI50 [4] was 507 nM and the TGI [4] was 15100 nM. It also gave a GI50 [5] of 613 nM, a TGI [5] of 12400 nM and a GI50 [6] of 1960 nM. It also gave a TGI [6] of 13000 nM, a GI50 [7] of 745 nM and a TGI [7] of 6510 nM. For the same compound, the GI50 [8] was 231 nM, the TGI [8] was > 100000 nM and the GI50 [9] was < 37.8 nM. For the same compound, the TGI [9] was 743 nM, the GI50 [10] was 681 nM and the TGI [10] was 5190 nM. It also gave a GI50 [11] of 282 nM, a TGI [11] of 2580 nM and a GI50 [12] of 408 nM. The TGI [12] was 2960 nM, the GI50 [13] was 184 nM and the TGI [13] was 1150 nM. For the same compound, the GI50 [14] was 418 nM, the TGI [14] was > 100000 nM and the GI50 [15] was 908 nM. It also gave a TGI [15] of 32200 nM, a GI50 [16] of 531 nM and a TGI [16] of 13200 nM. The GI50 [17] was 117 nM, the TGI [17] was 725 nM and the GI50 [18] was 1200 nM. It also gave a TGI [18] of 7100 nM, a GI50 [19] of 227 nM and a TGI [19] of 835 nM. The GI50 [20] was 243 nM, the TGI [20] was > 100000 nM and the GI50 [21] was 1330 nM. It also gave a TGI [21] of 19000 nM, a GI50 [22] of 609 nM and a TGI [22] of 3390 nM. For the same compound, the GI50 [23] was 1420 nM, the TGI [23] was 18400 nM and the GI50 [24] was 736 nM. It also gave a TGI [24] of 7060 nM, a GI50 [25] of 325 nM and a TGI [25] of 2910 nM. For the same compound, the GI50 [26] was 122 nM, the TGI [26] was 4970 nM and the GI50 [27] was 118 nM. The TGI [27] was 612 nM, the GI50 [28] was 460 nM and the TGI [28] was 6260 nM. It also gave a GI50 [29] of 585 nM and a TGI [29] of 4040 nM.

From PubChem BioAssay (NCI)
